Test results taken from ChEMBL document CHEMBL2331525, “Nudibaccatumone, a trimer comprising a phenylpropanoid and two sesquiterpene moieties from Piper nudibaccatum” (J Nat Prod, 2013).
pIC50: −log10 of the molar value. Calls of active or inactive are those of the source. The rule behind the calls is not given here.

Legend:
Staphylococcus aureus [1] = assay: Antimicrobial activity against Staphylococcus aureus by microdilution method; format: functional, organism-based
Escherichia coli [2] = assay: Antimicrobial activity against Escherichia coli by microdilution method; format: functional, organism-based
Escherichia coli [3] = assay: Antimicrobial activity against Escherichia coli at 100 uM by microdilution method; format: functional, organism-based
Candida albicans [4] = assay: Antimicrobial activity against Candida albicans at 100 uM by microdilution method; format: functional, organism-based
Staphylococcus aureus [5] = assay: Antimicrobial activity against Staphylococcus aureus at 100 uM by microdilution method; format: functional, organism-based
A549 [6] = assay: Cytotoxicity against human A549 cells at 100 uM by SRB assay; format: functional, cell-based
K562 [7] = assay: Cytotoxicity against human K562 cells at 100 uM by MTT assay; format: functional, cell-based
Candida albicans [8] = assay: Antimicrobial activity against Candida albicans by microdilution method; format: functional, organism-based
A549 [9] = assay: Cytotoxicity against human A549 cells by SRB assay; format: functional, cell-based
K562 [10] = assay: Cytotoxicity against human K562 cells by MTT assay; format: functional, cell-based

With GENTAMICIN the MIC (Staphylococcus aureus [1]) was 0.05 µg/mL and the MIC (Escherichia coli [2]) was 1.2 µg/mL.

For `C/C1=C\CC[C@]2(C)[C@@H]3C(=O)C(=O)[C@@H](C=C3/C=C/C[C@@]3(C)CC[C@H]4C3=C[C@H](C(C)(C)O)CC[C@H]4C)[C@H]2[C@H]2[C@H](CC1)C2(C)C`, the Activity (Escherichia coli [3]) was “inactive”, the Activity (Candida albicans [4]) was “inactive” and the Activity (Staphylococcus aureus [5]) was “inactive”. For the same compound, the Activity (A549 [6]) was “inactive” and the Activity (K562 [7]) was “inactive”.

NYSTATIN gave an MIC (Candida albicans [8]) of 1 µg/mL.

Compound `COc1cccc2c1C(=O)c1c(O)c3c(c(O)c1C2=O)C[C@@](O)(C(=O)CO)C[C@@H]3O[C@H]1C[C@H](N)[C@H](O)[C@H](C)O1` [DOXORUBICIN] has a pIC50 (A549 [9]) of 7.31 and a pIC50 (K562 [10]) of 6.55.
